According to EPA's ToxValDB 9.5 (doi:10.2903/j.efsa.2008.183r):
≈ marks a conversion by molar mass, not a printed value.

Experiments:
Anas platyrhynchos = details: short-term; oral; feed; mortality
Colinus virginianus = details: acute, oral, mortality; for LC50: diet
Oncorhynchus mykiss = details: acute; duration: 96 hours; mortality
Rattus norvegicus = details: inhalation
Coturnix japonica = details: reproduction developmental; reproduction
[1] = chronic, duration: 2 years, no effects
[2] = reproduction developmental, mortality
[3] = subchronic, duration: 90 days, no effects

| Compound | LC50 (Anas platyrhynchos) [mg/kg] | LC50 (Colinus virginianus) [mg/kg] | LD50 (Colinus virginianus) [mg/kg-day] | LC50 (Oncorhynchus mykiss) [ng/mL] | NOAEL (Rattus norvegicus; [1]) [mg/kg-day] | NOAEL (Rattus norvegicus; [2]) [mg/kg-day] | NOAEL (Rattus norvegicus; [3]) [mg/kg-day] | NOEC (Coturnix japonica) [mg/kg-day] |
| --- | --- | --- | --- | --- | --- | --- | --- | --- |
| P [Phosphine] | 762 | 124 | ≤ 9.2 | 4.68 (≈ 0.138 µM) | 1.1 | 1.9 | 1.1 |  |
| [Ca+2].[Ca+2].[Ca+2].[P-3].[P-3] [Tricalcium diphosphide] | 2040 | 330 | < 24.7 |  | 1.1 | 1.9 | 1.1 |  |
| [PH]=[Zn].[PH]=[Zn].[Zn] [Zinc phosphide (Zn3P2)] | 2880 | 469 | < 35 |  |  |  |  | < 3.5 |
